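Method: 48-hour compound exposure of cells in 96-well plates, five concentrations, linear interpolation of endpoints. Abbreviation: GI50, concentration required for 50% inhibition of growth.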 Calls of active or inactive are those of the source. Rule as the data show it: active = GI50 up to about 1.1 µM and inactive = higher.
How the values were obtained:
Test in all cases: NCI tumour cell line growth inhibition, 48 h
NCI-H522 = tested on: NCI-H522
NCI-H460 = tested on: NCI-H460
HT-29 = tested on: HT-29
OVCAR-5 = tested on: OVCAR-5
SK-MEL-28 = tested on: SK-MEL-28
ACHN = tested on: ACHN
SK-MEL-5 = tested on: SK-MEL-5
RXF 393 = tested on: RXF 393
HCC 2998 = tested on: HCC 2998
IGROV-1 = tested on: IGROV-1
SR = tested on: SR
SF-539 = tested on: SF-539
A549 = tested on: A549
RPMI-8226 = tested on: RPMI-8226
SK-MEL-2 = tested on: SK-MEL-2
HCT-116 = tested on: HCT-116
786-0 = tested on: 786-0
HOP-62 = tested on: HOP-62
HL-60 = tested on: HL-60

Structure (SMILES)	GI50 (NCI-H522)	GI50 (NCI-H460)	GI50 (HT-29)	GI50 (OVCAR-5)	GI50 (SK-MEL-28)	GI50 (ACHN)	GI50 (SK-MEL-5)	GI50 (RXF 393)	GI50 (HCC 2998)	GI50 (IGROV-1)	GI50 (SR)	GI50 (SF-539)	GI50 (A549)	GI50 (RPMI-8226)	GI50 (SK-MEL-2)	GI50 (HCT-116)	GI50 (786-0)	GI50 (HOP-62)	GI50 (HL-60)
CCOP(=O)(O)C(Nc1ccc(/N=N/c2ccccc2)cc1)c1cccc(C(Nc2ccc(/N=N/c3ccccc3)cc2)P(=O)(O)OCC)c1 (stereo not drawn)	20.8 µM (inactive)	33.3 µM (inactive)	20.1 µM (inactive)	40.6 µM (inactive)	32.3 µM (inactive)	45.9 µM (inactive)	45.1 µM (inactive)	75.5 µM (inactive)	25.2 µM (inactive)	56.5 µM (inactive)	31.3 µM (inactive)	33.9 µM (inactive)	34.2 µM (inactive)	23.2 µM (inactive)	45.2 µM (inactive)	56.6 µM (inactive)	60 µM (inactive)	25.3 µM (inactive)	22.1 µM (inactive)
Cc1nnc2n1N=C(c1ccccc1)/C(=C/c1ccc(-c3ccc(Cl)cc3)o1)S2	10.6 µM (inactive)	15.1 µM (inactive)	16.5 µM (inactive)	20.6 µM (inactive)	–	13.5 µM (inactive)	13.6 µM (inactive)	10.8 µM (inactive)	7.19 µM (inactive)	18.9 µM (inactive)	5.77 µM (inactive)	–	18 µM (inactive)	5.11 µM (inactive)	13.2 µM (inactive)	12.2 µM (inactive)	13.1 µM (inactive)	15.3 µM (inactive)	4.36 µM (inactive)
O=C(O)C1C2CCC(C2)C1c1ccccc1 (stereo not drawn)	> 100 µM (inactive)	> 100 µM (inactive)	> 100 µM (inactive)	> 100 µM (inactive)	> 100 µM (inactive)	> 100 µM (inactive)	> 100 µM (inactive)	> 100 µM (inactive)	> 100 µM (inactive)	–	> 100 µM (inactive)	> 100 µM (inactive)	> 100 µM (inactive)	> 100 µM (inactive)	55.5 µM (inactive)	> 100 µM (inactive)	> 100 µM (inactive)	> 100 µM (inactive)	> 100 µM (inactive)
O=C(/C=C/c1cc(O)c(O)cc1O)OCCc1ccccc1	2.28 µM (inactive)	34.5 µM (inactive)	18.4 µM (inactive)	> 41.9 µM (inactive)	21 µM (inactive)	12.2 µM (inactive)	18.7 µM (inactive)	–	> 72.1 µM (inactive)	23.1 µM (inactive)	5.53 µM (inactive)	18.6 µM (inactive)	> 67.8 µM (inactive)	3.56 µM (inactive)	20.8 µM (inactive)	> 41.7 µM (inactive)	5.05 µM (inactive)	31.1 µM (inactive)	1.3 µM (inactive)
C=C1CC(C)(COc2cc(=O)oc3ccccc23)OC1=O (stereo not drawn)	1.8 µM (inactive)	11.1 µM (inactive)	3.82 µM (inactive)	7.78 µM (inactive)	3.05 µM (inactive)	5.21 µM (inactive)	5.33 µM (inactive)	–	25.2 µM (inactive)	3.03 µM (inactive)	2.88 µM (inactive)	3.96 µM (inactive)	14 µM (inactive)	0.637 µM (active)	2.51 µM (inactive)	2.71 µM (inactive)	2.84 µM (inactive)	20.2 µM (inactive)	1.17 µM (inactive)
O=C(/C=C/c1ccc(F)c(F)c1)OCCc1ccccc1	38.6 µM (inactive)	> 100 µM (inactive)	34.5 µM (inactive)	> 100 µM (inactive)	> 100 µM (inactive)	> 100 µM (inactive)	38.5 µM (inactive)	–	> 100 µM (inactive)	> 100 µM (inactive)	90.6 µM (inactive)	> 100 µM (inactive)	> 100 µM (inactive)	77.6 µM (inactive)	> 100 µM (inactive)	74.5 µM (inactive)	> 100 µM (inactive)	> 100 µM (inactive)	> 100 µM (inactive)
O=[N+]([O-])c1ccc(C2=NOC(c3ccccc3)N2C23CC4CC(CC(C4)C2)C3)cc1 (stereo not drawn)	19 µM (inactive)	19.3 µM (inactive)	21.3 µM (inactive)	14.4 µM (inactive)	58.5 µM (inactive)	20.1 µM (inactive)	22.2 µM (inactive)	–	39 µM (inactive)	24.8 µM (inactive)	> 10 µM (inactive)	54 µM (inactive)	32.9 µM (inactive)	> 10 µM (inactive)	16.4 µM (inactive)	22.1 µM (inactive)	17.6 µM (inactive)	26.5 µM (inactive)	26.6 µM (inactive)
CCN(CC)CCN(/C(=N/c1ccccc1)N1CCCCC1)c1ccccc1	2.62 µM (inactive)	4.78 µM (inactive)	1.71 µM (inactive)	–	16.2 µM (inactive)	–	5.08 µM (inactive)	17.7 µM (inactive)	6 µM (inactive)	2.75 µM (inactive)	3.4 µM (inactive)	18.7 µM (inactive)	14.8 µM (inactive)	2.54 µM (inactive)	14.5 µM (inactive)	0.498 µM (active)	26.1 µM (inactive)	8.18 µM (inactive)	1.63 µM (inactive)

Reference: ChEMBL document CHEMBL1201862, “PubChem BioAssay data set” (2004)
